Reference: patent US11845724B2, “USP30 inhibitors and uses thereof” (Vincere Biosciences, Inc., priority 2019, dated 2023)
Read-outs that look alike come from different tables or passages of the source.

What was measured:
USP30 = USP30 (Homo sapiens (Human), UniProt Q70CQ3); test: Dundee MALDI-TOF mass spectrometry assay (IC50); type: biochemical; conditions: USP30 25 ng/μl, K48-linked diubiquitin 5.6 μM, avg, read-out: Dundee IC50 μM (avg in vitro MS assay)
In short: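 USP30 (25 ng/μl) preincubated with compound 5 min at RT in Tris/BSA/DTT buffer, then K48-linked diubiquitin (5.6 μM) added for 45 min at RT. Stopped with 2% TFA; cleavage quantified by MALDI-TOF mass spectrometry to give IC50.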

[1] = target: recombinant USP30 (amino acids 57-517 of the human sequence) (Homo sapiens (Human), UniProt Q70CQ3); test: In vitro USP30 biochemical assay (Ubiquitin-Rhodamine)
Experimental: In vitro biochemical assay to establish the potency of compounds for USP30 inhibition: a 384-well plate assay using a fluorophore tagged substrate of USP30 was used for in vitro screening of compounds. Each compound was tested at 10 different concentrations (0.5 to 10,000 nM) in duplicate wells. Compounds were pre-incubated at 25° C. for 30 min in an assay buffer consisting of 20 mM Tris/HCl, pH8.0, 1 mM GSH, 0.01% Triton X-100, 0.03% BGG and 1.5 nM recombinant USP30 (amino acids 57-517 of the human sequence with a C-terminal 6-His tag). Following the pre-incubation, Ubiquitin-Rhodamine substrate dissolved in the assay buffer was added at the final concentration of 25 nM to each well and plates were incubated at 25° C. for an additional 75 minutes. The reaction was stopped by adding 10 mM citric acid and fluorescence was read using excitation wavelength 485 nm, emission of 535 nm. Data were analyzed using Graph Pad Prism software with a four-parameter (floating slope) fit to log concentration data to determine IC50s.

[2] = read-out: USP30 IC50 μM (avg), Ubiquitin-Rhodamine substrate 25 nM, 1.5 nM recombinant USP30
[3] = USP30 IC50 μM (avg), Ubiquitin-Rhodamine substrate 25 nM, 1.5 nM recombinant USP30

Chain of USP30 (Q70CQ3 whole entry): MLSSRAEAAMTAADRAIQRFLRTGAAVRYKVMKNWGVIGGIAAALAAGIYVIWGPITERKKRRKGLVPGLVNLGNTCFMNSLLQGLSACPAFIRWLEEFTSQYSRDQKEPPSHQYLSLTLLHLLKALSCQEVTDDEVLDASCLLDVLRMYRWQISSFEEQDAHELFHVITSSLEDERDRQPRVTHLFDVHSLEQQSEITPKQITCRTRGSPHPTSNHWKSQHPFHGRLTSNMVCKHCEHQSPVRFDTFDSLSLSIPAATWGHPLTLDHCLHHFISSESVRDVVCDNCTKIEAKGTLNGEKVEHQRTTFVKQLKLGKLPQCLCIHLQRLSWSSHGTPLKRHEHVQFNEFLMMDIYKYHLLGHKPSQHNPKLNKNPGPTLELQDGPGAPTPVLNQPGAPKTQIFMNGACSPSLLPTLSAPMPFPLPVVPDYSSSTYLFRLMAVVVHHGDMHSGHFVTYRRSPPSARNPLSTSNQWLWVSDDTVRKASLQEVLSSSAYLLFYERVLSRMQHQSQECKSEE
Chain of recombinant USP30 (amino acids 57-517 of the human sequence) (Q70CQ3 57-517): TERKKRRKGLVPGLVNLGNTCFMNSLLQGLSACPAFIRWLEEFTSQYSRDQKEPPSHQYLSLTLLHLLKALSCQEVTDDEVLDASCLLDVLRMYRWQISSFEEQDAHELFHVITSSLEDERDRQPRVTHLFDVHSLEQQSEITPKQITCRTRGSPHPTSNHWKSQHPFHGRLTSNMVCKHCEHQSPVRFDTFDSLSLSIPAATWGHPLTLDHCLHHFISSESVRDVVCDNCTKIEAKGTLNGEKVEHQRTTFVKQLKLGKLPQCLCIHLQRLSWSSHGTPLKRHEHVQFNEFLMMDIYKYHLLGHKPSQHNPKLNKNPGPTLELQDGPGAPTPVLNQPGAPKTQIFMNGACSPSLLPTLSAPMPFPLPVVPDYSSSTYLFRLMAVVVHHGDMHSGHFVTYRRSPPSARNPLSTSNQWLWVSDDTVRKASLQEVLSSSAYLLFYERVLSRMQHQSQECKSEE

Row | IC50 (USP30) [µM] | IC50 [1, 2] [µM] | IC50 [1, 3] [µM] | Structure (SMILES)
1 | 1 to 10 | > 10 |  | CCNS(=O)(=O)N1CCCc2c(NC(=O)[C@H](Cc3ccccc3)NC(=O)C3CCCCC3)cccc21 [Compound I-126, (S)-N-(1-(1-(N-ethylsulfamoyl)-1,2,3,4-tetrahydroquinolin-5-ylamino)-1-oxo-3-phenylpropan-2-yl)cyclohexanecarboxamide]
2 | 1 to 10 |  | 1 to 10 | CC(C)(C)NS(=O)(=O)N1CCCc2c(NC(=O)[C@H](Cc3ccccc3)NC(=O)C3CCCCC3)cccc21 [Compound I-129, (S)-N-(1-(1-(N-tert-butylsulfamoyl)-1,2,3,4-tetrahydroquinolin-5-ylamino)-1-oxo-3-phenylpropan-2-yl)cyclohexanecarboxamide]
3 | 0.05 to 1 |  | 0.05 to 1 | O=C(N[C@@H](Cc1ccccc1)C(=O)Nc1cccc2c(S(=O)(=O)NC3COC3)cccc12)c1ccc(F)cc1 [Compound I-131, (S)-4-fluoro-N-(1-(5-(N-oxetan-3-ylsulfamoyl)naphthalen-1-ylamino)-1-oxo-3-phenylpropan-2-yl)benzamide]
4 | < 0.05 |  | 0.05 to 1 | COCCNS(=O)(=O)c1ccc(NC(=O)[C@H](Cc2ccccc2)NC(=O)c2ccc(F)cc2)cc1 [Compound I-132, (S)-4-fluoro-N-(1-(4-(N-(2-methoxyethyl)sulfamoyl)phenylamino)-1-oxo-3-phenylpropan-2-yl)benzamide]
5 | 1 to 10 |  | 0.05 to 1 | CN(C)CCNS(=O)(=O)c1ccc(NC(=O)[C@H](Cc2ccccc2)NC(=O)c2ccc(F)cc2)cc1 [Compound I-133, (S)-N-(1-(4-(N-(2-(dimethylamino)ethyl)sulfamoyl)phenylamino)-1-oxo-3-phenylpropan-2-yl)-4-fluorobenzamide]
6 | < 0.05 | < 0.05 |  | COCC(C)(C)NS(=O)(=O)c1ccc(NC(=O)[C@H](Cc2ccccc2)NC(=O)c2ccc(F)cc2)cc1 [Compound I-134, (S)-4-fluoro-N-(1-(4-(N-(1-methoxy-2-methylpropan-2-yl)sulfamoyl)phenylamino)-1-oxo-3-phenylpropan-2-yl)benzamide]
7 | < 0.05 | < 0.05 |  | CC1(NS(=O)(=O)c2ccc(NC(=O)[C@H](Cc3ccccc3)NC(=O)c3ccc(F)cc3)cc2)COC1 [Compound I-136, (S)-4-fluoro-N-(1-(4-(N-(3-methyloxetan-3-yl)sulfamoyl)phenylamino)-1-oxo-3-phenylpropan-2-yl)benzamide]
8 | < 0.05 |  | 0.05 to 1 | O=C(N[C@@H](Cc1ccccc1)C(=O)Nc1ccc(S(=O)(=O)NCCO)cc1)c1ccc(F)cc1 [Compound I-138, (S)-4-fluoro-N-(1-(4-(N-(2-hydroxyethyl)sulfamoyl)phenylamino)-1-oxo-3-phenylpropan-2-yl)benzamide]
9 | 0.05 to 1 |  | 0.05 to 1 | CCNS(=O)(=O)c1ccc(NC(=O)[C@H](Cc2ccccn2)NC(=O)c2ccc(F)cc2)cc1 [Compound I-139, (S)-N-(1-(4-(N-ethylsulfamoyl)phenylamino)-1-oxo-3-(pyridin-2-yl)propan-2-yl)-4-fluorobenzamide]
10 | 0.05 to 1 |  | 0.05 to 1 | O=C(N[C@@H](Cc1ccccn1)C(=O)Nc1ccc(S(=O)(=O)NC2COC2)cc1)c1ccc(F)cc1 [Compound I-140, (S)-4-fluoro-N-(1-(4-(N-oxetan-3-ylsulfamoyl)phenylamino)-1-oxo-3-(pyridin-2-yl)propan-2-yl)benzamide]
11 | 0.05 to 1 |  | 0.05 to 1 | O=C(N[C@@H](Cc1ccccn1)C(=O)Nc1ccc(S(=O)(=O)NC23CC(C2)C3)cc1)c1ccc(F)cc1 [Compound I-141, (S)-N-(1-(4-(N-bicyclo[1.1.1]pentan-1-ylsulfamoyl)phenylamino)-1-oxo-3-(pyridin-2-yl)propan-2-yl)-4-fluorobenzamide]
12 | < 0.05 |  | 0.05 to 1 | O=C(N[C@@H](Cc1ccccn1)C(=O)Nc1ccc(S(=O)(=O)NC2CCC2)cc1)c1ccc(F)cc1 [Compound I-142, (S)-N-(1-(4-(N-cyclobutylsulfamoyl)phenylamino)-1-oxo-3-(pyridin-2-yl)propan-2-yl)-4-fluorobenzamide]
13 | 0.05 to 1 |  | 0.05 to 1 | COc1cc(S(=O)(=O)NC2COC2)ccc1NC(=O)[C@H](Cc1ccccc1)NC(=O)c1ccc(F)cc1 [Compound I-144, (S)-4-fluoro-N-(1-(2-methoxy-4-(N-oxetan-3-ylsulfamoyl)phenylamino)-1-oxo-3-phenylpropan-2-yl)benzamide]
14 | 0.05 to 1 |  | 0.05 to 1 | CCNS(=O)(=O)c1ccc(NC(=O)[C@H](Cc2ccccc2)NC(=O)c2ccc(F)cc2)cc1OC [Compound I-146, (S)-N-(1-(4-(N-ethylsulfamoyl)-3-methoxyphenylamino)-1-oxo-3-phenylpropan-2-yl)-4-fluorobenzamide]
15 | < 0.05 |  | 0.05 to 1 | COc1cc(NC(=O)[C@H](Cc2ccccc2)NC(=O)c2ccc(F)cc2)ccc1S(=O)(=O)NC1COC1 [Compound I-147, (S)-4-fluoro-N-(1-(3-methoxy-4-(N-oxetan-3-ylsulfamoyl)phenylamino)-1-oxo-3-phenylpropan-2-yl)benzamide]
16 | < 0.05 |  | 0.05 to 1 | COc1cc(NC(=O)[C@H](Cc2ccccc2)NC(=O)c2ccc(F)cc2)ccc1S(=O)(=O)NC12CC(C1)C2 [Compound I-148, (S)-N-(1-(4-(N-bicyclo[1.1.1]pentan-1-ylsulfamoyl)-3-methoxyphenylamino)-1-oxo-3-phenylpropan-2-yl)-4-fluorobenzamide]
17 | < 0.05 |  | 0.05 to 1 | COCC(C)(C)NS(=O)(=O)c1ccc(NC(=O)[C@H](Cc2ccccc2)NC(=O)c2ccc(F)cc2)cc1OC [Compound I-149, (S)-4-fluoro-N-(1-(3-methoxy-4-(N-(1-methoxy-2-methylpropan-2-yl)sulfamoyl)phenylamino)-1-oxo-3-phenylpropan-2-yl)benzamide]
18 | < 0.05 |  | 0.05 to 1 | COc1cc(NC(=O)[C@H](Cc2ccccc2)NC(=O)c2ccc(F)cc2)ccc1S(=O)(=O)NC1CCOCC1 [Compound I-150, (S)-4-fluoro-N-(1-(3-methoxy-4-(N-(tetrahydro-2H-pyran-4-yl)sulfamoyl)phenylamino)-1-oxo-3-phenylpropan-2-yl)benzamide]
19 | < 0.05 |  | 0.05 to 1 | COCCNS(=O)(=O)c1ccc(NC(=O)[C@H](Cc2ccccc2)NC(=O)c2ccc(F)cc2)cc1OC [Compound I-151, (S)-4-fluoro-N-(1-(3-methoxy-4-(N-(2-methoxyethyl)sulfamoyl)phenylamino)-1-oxo-3-phenylpropan-2-yl)benzamide]
20 | < 0.05 |  | 0.05 to 1 | COc1cc(NC(=O)[C@H](Cc2ccccc2)NC(=O)c2ccc(F)cc2)ccc1S(=O)(=O)NCCO [Compound I-152, (S)-4-fluoro-N-(1-(4-(N-(2-hydroxyethyl)sulfamoyl)-3-methoxyphenylamino)-1-oxo-3-phenylpropan-2-yl)benzamide]
21 | < 0.05 |  | 0.05 to 1 | CCNS(=O)(=O)c1ccc(NC(=O)[C@H](Cc2ccccc2)NC(=O)c2ccc(F)cc2)cc1F [Compound I-155, (S)-N-(1-(4-(N-ethylsulfamoyl)-3-fluorophenylamino)-1-oxo-3-phenylpropan-2-yl)-4-fluorobenzamide]
22 | < 0.05 | < 0.05 |  | CC(C)(C)NS(=O)(=O)c1ccc(NC(=O)[C@H](Cc2ccccc2)NC(=O)c2ccc(F)cc2)cc1F [Compound I-156, (S)-N-(1-(4-(N-tert-butylsulfamoyl)-3-fluorophenylamino)-1-oxo-3-phenylpropan-2-yl)-4-fluorobenzamide]
23 | 0.05 to 1 |  | 0.05 to 1 | CCNS(=O)(=O)c1ccc(NC(=O)[C@H](Cc2ccccc2)NC(=O)c2ccc(F)cc2)c(F)c1 [Compound I-157, (S)-N-(1-(4-(N-ethylsulfamoyl)-2-fluorophenylamino)-1-oxo-3-phenylpropan-2-yl)-4-fluorobenzamide]
24 | < 0.05 | < 0.05 |  | CC(C)(C)NS(=O)(=O)c1ccc(NC(=O)[C@H](Cc2ccccc2)NC(=O)c2ccc(F)cc2)c(F)c1 [Compound I-158, (S)-N-(1-(4-(N-tert-butylsulfamoyl)-2-fluorophenylamino)-1-oxo-3-phenylpropan-2-yl)-4-fluorobenzamide]
25 | < 0.05 | < 0.05 |  | CC(C)(CN1CCOCC1)NS(=O)(=O)c1ccc(NC(=O)[C@H](Cc2ccccc2)NC(=O)c2ccc(F)cc2)cc1 [Compound I-162, (S)-4-fluoro-N-(1-(4-(N-(2-methyl-1-morpholinopropan-2-yl)sulfamoyl)phenylamino)-1-oxo-3-phenylpropan-2-yl)benzamide]

Row | Structure (SMILES) | IC50 (USP30) [µM] | IC50 [1, 2] [µM] | IC50 [1, 3] [µM]
26 | CC(C)(C)OCCNS(=O)(=O)c1ccc(NC(=O)[C@H](Cc2ccccc2)NC(=O)c2ccc(F)cc2)cc1 [Compound I-135, (S)-N-(1-(4-(N-(2-tert-butoxyethyl)sulfamoyl)phenylamino)-1-oxo-3-phenylpropan-2-yl)-4-fluorobenzamide] | 0.05 to 1 |  | 1 to 10
